Bounds are passed on as bounds.

From publication PMC7321108, “1-Hydroxyanthraquinones Containing Aryl Substituents as Potent and Selective Anticancer Agents” (Molecules, 2020) come the findings set out here.

Data set [1] concerns SNB-19 glioblastoma cells. Nature of the data set: MTT cytotoxicity assay, SNB-19. The data set is classed as cell-based. Particulars: Homo sapiens, 72 h incubation, mean ± SEM of three experiments, read-out: Cytotoxicity (GI50) against SNB-19. The procedure: (§1) The cytotoxicity of the synthesized series of 4-substituted 5, 13–17, 22, 23, 2-substituted 25–30 and 2,4-disubstituted 1-hydroxy-9,10-anthraquinones 33–38, 40–45 was evaluated against a panel of seven different human cancer cell lines (glioblastoma cancer cells, human prostate cancer cells, T-cellular human leucosis, breast cancer cells) and also a normal cell line of hTERT-immortalized lung fibroblasts, using conventional MTT assay. Doxorubicin (DOX) is clinically used to treat cancer as drug in world and have a very wide antitumor spectrum. That we use them as positive control compounds. The cytotoxicity was determined by measuring the concentration inhibiting human tumor cell viability by 50% (GI50).
(§2) The human cancer cells of the glioblastoma (U-87MG, SNB-19, T98G), prostate cancer cell line (LNCAP, DU-145), the cells of T-cellular human leucosis (MT-4) and human breast cancer cells (MDA-MB-231) were used in this study. The cells were cultured in the RPMI-1640 medium that contained 10% embryonic calf serum, L-glutamine (2 mmol/L), gentamicin ([…]) and lincomycin (30 mkg/mL) in a CO2 incubator at 37 °C. The tested compounds were dissolved in DMSO and added to the cellular culture at the required concentrations. Three wells were used for each concentration. The cells which were incubated without the compounds were used as a control. Cells were placed on 96-well microliter plates and cultivated at 37 °C in 5% CO2/95% air for 72 h. The cell viability was assessed through an MTT [3-(4,5-dimethylthiazol-2-yl)-[…]-2H-tetrazolium bromide] conversion assay. A total of 1% MTT was added to each well. Four hours later, DMSO was added and mixed for 15 min. Optical density (D) of the samples was measured on a BioRad 680 multi-well spectrophotometer (USA) at the wavelength of 450 nm. The 50% cytotoxic dose GI50) of each compound (i.e., the compound concentration that causes the death of 50% of cells in a culture, or decreases the optical density twice as compared to the control wells) was calculated from the data obtained. Statistical processing of the results was performed using the Microsoft Excel-2007, […] 6.0 and GraphPad Prism 5.0 programs. The results are given as an average value ± a deviation from the average (mean ± standard error of the mean (SEM)). Reliability of differences (p) was estimated using the Student t test. The differences with p < 0.05 were considered as reliable. The experimental results are given as the data average values obtained from three independently conducted experiments.
A general note: Tetrazolium dyes change colour on reduction, which living cells bring about.

Data set [2] has as its system U-87MG glioblastoma cells. Briefly: MTT cytotoxicity assay, U-87MG. The data set is classed as cell-based. The conditions noted are these: Homo sapiens, 72 h incubation, mean ± SEM of three experiments, read-out: Cytotoxicity (GI50) against U-87MG. The protocol:
as §1, §2

Data set [3] concerns T98G glioblastoma cells. Nature of the data set: MTT cytotoxicity assay, T98G. The conditions noted are these: Homo sapiens, 72 h incubation, mean ± SEM of three experiments, read-out: Cytotoxicity (GI50) against T98G. The data set is classed as cell-based. The procedure:
as §1, §2

Data set [4] has as its system LNCAP prostate cancer cells. Nature of the data set: MTT cytotoxicity assay, LNCAP. The data set is classed as cell-based, human. Particulars: Homo sapiens, LNCaP, 72 h, 72 h incubation, mean ± SEM of three experiments, read-out: Cytotoxicity (GI50) against LNCAP. The procedure: as §1, §2
For data set [5], the system named is DU-145 prostate cancer cells. Nature of the data set: MTT cytotoxicity assay, DU-145. The data set is classed as cell-based, human. The conditions noted are these: Homo sapiens, DU-145, 72 h, 72 h incubation, mean ± SEM of three experiments, read-out: Cytotoxicity (GI50) against DU-145. The protocol: as §1, §2
For data set [6], the system named is MT-4 cells of T-cellular human leucosis. Nature of the data set: MTT cytotoxicity assay, MT-4. The data set is classed as cell-based. Particulars: MT4, 72 h incubation, mean ± SEM of three experiments, read-out: Cytotoxicity (GI50) against MT-4. The protocol:
as §1, §2

Data set [7] concerns MDA-MB-231 breast cancer cells. Nature of the data set: MTT cytotoxicity assay, MDA-MB-231. The data set is classed as cell-based. Particulars: Homo sapiens, 72 h incubation, mean ± SEM of three experiments, read-out: Cytotoxicity (GI50) against MDA-MB-231. The protocol: as §1, §2
Data set [8] can be described thus: MTT cytotoxicity assay, normal hTERT-immortalized lung fibroblasts. Particulars: human, hTERT-immortalized lung fibroblasts (normal cell line), 72 h incubation, mean ± SEM of three experiments, read-out: Cytotoxicity (GI50) against hTERT Lung Fibroblasts. The format is cell-based. The procedure: as §1, §2
Data set [9] relates to pUC19 DNA plasmid. Briefly: Gel retardation (electrophoretic mobility shift) assay. Particulars: 0.5 µg pUC19 plasmid, 0.025 µM test compound, room temperature 1 h, agarose gel 60 V 4 h. The format is binding. The protocol: The interaction of compounds 13, 15, 16, 23, 25 27, 28, 35, 40 and 44 with DNA was experimentally confirmed by study of the electrophoretic mobility. For this the gel retardation assay was performed. Doxorubicin in different concentration was used as a positive control. In order to avoid destruction of the possible complex of DNA with compounds, the electrophoresis was performed at low voltage. The results are presented at Figure 3.
To study the interaction between test compounds and DNA the electrophoretic mobility shift assay was performed. 0.5 µg of pUC19 plasmid was incubated with 0.025 µM of test compounds at room temperature for 1 h. After that the electrophoresis was performed in agarose gel (1/2%) in TBE buffer (60 V, 4 h). For visualization the gel was staining with ethidium bromide and analyzed with Bio-Rad gel documentation system.

For data set [10], the system named is SNB-19 cells. Briefly: Cell cycle analysis by flow cytometry (Hoechst 33342), SNB-19. The format is cell-based, human. The conditions noted are these: SNB-19, treated at GI50 concentration, 24 h. The procedure: Due to the fact that the implementation of the antitumor potential of the currently existing antitumor agents is carried out by acting on various biological targets, at the next stage we performed the cell cycle analysis and DNA synthesis. Cell cycle analysis of 1-hydroxy-4-phenyl-9,10-anthraquinone 13, 1-hydroxy-4-(2,3-dimethoxyphenyl)-9,10- anthraquinone 16, 1-hydroxy-4-(furan-3-yl)-9,10-anthraquinone 23 and 1-hydroxy- 2-(2,3-dimethoxyphenyl)-9,10-anthraquinone 28 against SNB-19 cells for 24 h produced interesting results. After examining the data for compounds 13 and 16 (Table 3, Figure 4C,D), good number of cells are distributed in S phase, i.e., initiated DNA replication mechanism and also in G0/G1 phase, i.e., initial phase of cell cycle. G1 and G2 are the growth phases in cell cycle analysis, whereas S phase is a synthetic phase wherein DNA replication and DNA synthesis take place. The 2-aryl substituted compound 28 initiated the G0/G1 phase in analogy with doxorubicin and mitomycin. […] Further, compounds play a vital role in controlling the regulation of Sub-G1 and G2/M phases. Some difference in the mechanism of operation of 4-aryl substituted 13,16 and 2-aryl substituted 9,10-anthraquinones 28 has been observed during the progression of cell cycle like: S phase was highly disturbed by 13; G0/G1 phase was highly disturbed by 28. […] This observation can be explained by the influence on the cell repair systems that respond to the intercalation of compounds in DNA. […] Further, mitoxantrone promotes the arrest of S phase of cell cycle.
For cell cycle analysis cells were seeded in 6-well plates (30,000 per plate) and incubate for adhesion for 24 h. […] Cells were washed with PBS twice, harvested, pelleted and resuspended in 0.5 mL of PBS. For staining the Hoechst 33342 Ready Flow Reagent (Invitrogen) was used according to the instruction. CytoFLEX flow cytometer (Beckman Coulter) was used for analysis. The results are presented as a percentage of cell population standing in different stages of the cell cycle.

Data set [11] concerns SNB-19 cells. Briefly: DNA synthesis investigation (BrdU/PI flow cytometry), SNB-19. The data set is classed as cell-based, human. Particulars: SNB-19, treated at GI50 concentration, 24 h, BrdU 30 min. Background: In flow cytometry, cells or beads pass a laser one at a time.
Protocol: Cell cycle analysis was performed by Flow Cytometry using BrdU and PI staining [63]. For this experiment cells were seeded in 6-well plates (30,000 per plate) and incubate for adhesion for 24 h. […] For the next step the BrdU stock was added at a final concentration of 30 µM and cells were incubated for 30 min. Cells were washed with PBS, harvested using trypsine and resuspended at 0.3 mL of PBS. Permeabilization of cell membrane was performed as follows: 0.7 mL of ice-cold 100% EtOH was added into each sample, mixed gently and incubate at 4 °C for 1 h. Cells were pelleted and supernatant was removed completely. Then 0.5 mL of 2 N HCl/0.5% Triton X-100 was added and samples were incubated 30 min at room temperature. Cells were pelleted again, supernatant was removed. The pellet was resuspended in 0.5 mL of 0.1 M sodium tetraborate for 2 min and cells were pelleted again, washed with 150 µL of PBS/1% BSA and resuspended in 50 µM 0.5% Tween 20/1% BSA/PBS. […] After that the samples were resuspended in 0.5 mL of PBS containing 10 mg/mL RNAse A and 20 mg/mL PI. Samples were incubated at room temperature for 30 min and analyzed immediately or store at 4 °C. CytoFLEX flow cytometer (Beckman Coulter) was used for analysis. The results are presented as a percentage of cell population standing in DNA synthesis process.

Broadly, the GI50 is the concentration that inhibits growth by half. What is called melting point is the temperature, or range, at which the solid turns liquid. With `COc1ccc(-c2cc(-c3ccc(OC)cc3)c3c(c2O)C(=O)c2ccccc2C3=O)cc1` [Compound 35, 1-Hydroxy-2,4-di-(4-methoxyphenyl)anthracene-9,10-dione], the melting point was 226.4 °C (dec.). Moreover, the GI50 in data set [1] worked out at 10.1 ± 1.08 µM. In data set [2], the GI50 is 25.7 ± 3.14 µM. Also, the GI50 in [3] turned out to be 9.8 ± 0.56 µM. Besides, the GI50 in data set [4] was 26.7 ± 1.86 µM. In addition, the GI50 in data set [5] was determined as 5.9 ± 0.52 µM. Moreover, the GI50 in data set [6] stood at 20.2 ± 1.04 µM. Also, in data set [7], the GI50 was 7.6 ± 0.64 µM. In addition, the GI50 at 72 h in [8] turned out to be 17.7 ± 0.96 µM. The “Retardation of plasmid DNA (electrophoretic mobility)” value (from here on “Retardation of plasmid DNA”) in data set [9] is “cause a retardation of plasmid DNA”.
`COc1ccc(-c2ccc3c(c2O)C(=O)c2ccccc2C3=O)cc1` [Compound 27, 1-Hydroxy-2-(4-methoxyphenyl)anthracene-9,10-dione]: the melting point is 209.5 °C (dec.). For the same compound, the GI50 in data set [1] amounted to 8.5 ± 0.32 µM. For the same compound, the GI50 in [2] is 35.8 ± 2.17 µM. In addition, the GI50 in data set [3] stood at 21.6 ± 0.38 µM. Besides, in [4], the GI50 was > 100 µM. Further, the GI50 in data set [5] worked out at 19.1 ± 0.78 µM. For the same compound, in [6], the GI50 is 38.6 ± 1.36 µM. In addition, in data set [7], the GI50 was determined as 23.2 ± 2.34 µM. Also, the GI50 at 72 h in [8] came out at 46.5 ± 1.21 µM. Further, the “Retardation of plasmid DNA” value in data set [9] is on record as “cause a retardation of plasmid DNA”.
As to `COc1ccc(-c2ccc(O)c3c2C(=O)c2ccccc2C3=O)cc1` [Compound 15, 1-Hydroxy-4-(4-methoxyphenyl)anthracene-9,10-dione], the melting point is 209.2 to 209.4 °C. In addition, the GI50 in data set [1] was 9.6 ± 1.04 µM. In data set [2], the GI50 is 45.4 ± 1.87 µM. For the same compound, in data set [3], the GI50 was determined as 11.6 ± 0.78 µM. For the same compound, in data set [4], the GI50 was found to be 28.5 ± 0.96 µM. Further, the GI50 in data set [5] stood at 6.5 ± 0.48 µM. Besides, the GI50 in data set [6] worked out at 32.1 ± 1.54 µM. Moreover, in data set [7], the GI50 came out at 6.8 ± 0.58 µM. For the same compound, in data set [8], the GI50 at 72 h was 42 ± 2.04 µM. Further, the “Retardation of plasmid DNA” value in [9] is on record as “cause a retardation of plasmid DNA”.
For the compound `O=C1c2ccccc2C(=O)c2c(-c3ccoc3)ccc(O)c21` [Compound 23, 1-(Furan-3-yl)-4-hydroxyanthracene-9,10-dione], the melting point was 190 °C (dec.). Further, the 50% growth inhibitory concentration (GI50) in [1] turned out to be 37 ± 1.41 µM. Also, the GI50 in data set [2] is 58.7 ± 2.48 µM. In addition, the GI50 in data set [3] was found to be 34.8 ± 1.06 µM. Moreover, the GI50 in data set [4] is 22.2 ± 2.12 µM. Besides, the GI50 in [5] worked out at 15.4 ± 0.96 µM. Further, the GI50 in data set [6] was found to be 56.1 ± 1.96 µM. For the same compound, the 50% growth inhibitory concentration (GI50) in [7] was determined as 18.2 ± 1.27 µM. In data set [8], the GI50 at 72 h came out at 69.5 ± 1.52 µM. The “Retardation of plasmid DNA” value in [9] is given as “cause a retardation of plasmid DNA”. In data set [10], the “Population (% Cell Distribution) G0/G1” value was 34.6%, the “Population (% Cell Distribution) G2/M” value amounted to 17.3%, the “Population (% Cell Distribution) S” value is 32.5% and the “Population (% Cell Distribution) Sub-G1” value is recorded as 3.1%. For the same compound, the “Population (% Cell Distribution) Super-G2” value in data set [10] amounted to 11.8%. Further, in [11], the “Population (% Cell Distribution) DNA Synthesis” value is on record as 22.71%.
Take `COc1cccc(-c2ccc3c(c2O)C(=O)c2ccccc2C3=O)c1OC` [Compound 28, 2-(2,3-Dimethoxyphenyl)-1-hydroxyanthracene-9,10-dione]: the melting point was 176.3 °C (dec.). Besides, the GI50 in [1] stood at 5.77 ± 0.23 µM. Also, the GI50 in data set [2] is > 100 µM. For the same compound, in data set [3], the GI50 is 32.6 ± 1.68 µM. Further, the GI50 in [4] amounted to 23.1 ± 1.24 µM. Also, the concentration for 50% growth inhibition (GI50) in [5] is > 100 µM. Further, the GI50 in [6] amounted to 18.2 ± 0.86 µM. Also, in [7], the GI50 is 42.4 ± 3.32 µM. Besides, the GI50 at 72 h in [8] worked out at 51.3 ± 3.18 µM. Also, in [10], the “Population (% Cell Distribution) G0/G1” value stood at 54.5%, the “Population (% Cell Distribution) G2/M” value turned out to be 13.7%, the “Population (% Cell Distribution) S” value worked out at 22.4% and the “Population (% Cell Distribution) Sub-G1” value amounted to 3.6%. The “Population (% Cell Distribution) Super-G2” value in [10] worked out at 5.8%. Also, the “Population (% Cell Distribution) DNA Synthesis” value in data set [11] is on record as 16.83%.
